Experimental findings from patent US11633370B2, “Use of scavengers of reactive gamma-ketoaldehydes to extend cell lifespan and healthspan” (Vanderbilt University, priority 2016, dated 2023) are described below.

One assay deals with VC199 SIR-2.1 mutants. The assay can be described thus: mtDNA copy number by qPCR, VC199. Format: in vivo, C. elegans. The following applies: with age or with SA treatment. From the text:
Mitochondria lie at the center of aging biology, playing crucial roles in energy production, carbon substrate metabolism, apoptosis regulation, and redox balance and signaling. Since sirtuins play a major role in regulating mitochondrial function, the present inventors next wanted to investigate whether SA was exerting any of its effects via protection of mitochondrial processes. To investigate SA's effects on mitochondrial respiration, the present inventors administered SA to WT N2 (FIG. 5A) and non-functional SIR-2.1 mutant worms (FIG. 5B) and measured oxygen consumption rate (OCR) in whole worms over several days. […] The present inventors also examined the effect of SA treatment on mitochondrial DNA (mtDNA) integrity.
Relative mitochondrial and nuclear copy number were measured by quantitative, real-time PCR [90]. Primers for NADH dehydrogenase unit 1 (nd1) and a 164 bp region of the cox-4 gene were used in determination of mtDNA copy number. The nd1 forward primer 5′-[…]-3′ and reverse primer 5′-[…]-3′. Cox-4 forward primer 5′-GCCGACTGGAAGAACTTGTC-3′ and reverse primer 5′-[…]-3′. […] Amplified products were detected with SYBR Green (iQ™ SYBR® Green Supermix, Bio-Rad) and fluorescent signal intensities were determined by CFX96 Touch™ Real-Time PCR Detection System (Bio-Rad) by software CFX Manager™ (version 3.1). […]
A general note: Quantitative PCR measures a nucleic acid by following its amplification.

Assay [1] relates to RB981 [F19F10.5(ok888) V]. In words: Longevity assay, ets-7 gene knock-out strain. The conditions noted are these: 500 μM SA; 0 μM SA 16 days; p>0.05. In kind it is in vivo, C. elegans. From the text:
First, to validate the microarray results, the present inventors performed real-time RT-PCR on four genes, siah-1, sma-4, F13D12.6, and ets-7 (FIG. 6B). […] Messenger RNA levels for siah-1 and sma-4 were decreased by nearly 25%, as well as F13D12.6 and ets-7 were increased by nearly 25% by SA administration (p<0.05). Pathway Analysis using Gene Ontology (GO) with WEB-based Gene SeT Analysis Toolkit (WEBGESTALT <http://bioinfo.vanderbilt.edu/webgestalt/>) highlighted the metabolic process, lipid metabolic process, proteolysis pathways among many others as being altered favorably by the administration of SA (see Supplemental Data). From the array data confirmed by RT-PCR, the present inventors identified the ETS class transcription factor ETS-7 as a protein of interest. […] In order to test this, the present inventors carried out real-time RT-PCR quantification of ets-7 in non-functional SIR-2.1 mutant nematodes treated with increasing doses of SA (FIG. 6E). […]
Survival cultures were grown on 60-mm agar plates; after the late-stage L4/young adult molt, approximately 100 adults were transferred onto SA-OP50-seeded NGM plates. […] Worms were maintained at 20° C. and live worms were counted during transfer to freshly made SA-OP50-NGM agar plates every 2-3 days. Survival was scored as movement upon slight touch with the platinum wire. […]

Molecules are shown by their SMILES.

Take `NCc1ccccc1O` [SA, salicylamine]: the “mtDNA copy number relative to nuclear DNA” value in the assay on VC199 SIR-2.1 mutants is “no significant difference”. In addition, the median lifespan in assay [1] is 15 days.
